From patent US20240208992A1, “MACROCYCLES AS CFTR MODULATORS” (Idorsia Pharmaceuticals Ltd, priority 2021, published 2024)

Molecular target: human F508del-CFTR (Homo sapiens, UniProt P13569, DEL508-508)
Test: F508del-CFTR cell surface expression (corrector activity), DiscoveRx ß-galactosidase complementation chemiluminescence assay in recombinant U2OS cell line;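 note: U2OS cells co-expressing ProLink-tagged F508del-CFTR and a membrane-anchored enzyme acceptor, where more surface CFTR restores β-galactosidase activity measured by chemiluminescence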
Conditions: for EC50: EC50, F508del-CFTR cell surface expression; for Emax: U2OS
[1] = U2OS cell line, 16h compound incubation, geomean values
[2] = in relation to the Emax of the corrector lumacaftor (=100%), U2OS cell line, 16h compound incubation, arithmetic mean values
[3] = U2OS cells, 16h compound incubation, geomean values
[4] = in relation to Emax of corrector lumacaftor (=100%), arithmetic mean values

human F508del-CFTR, sequence (P13569 with tags, fused parts or gaps DEL508-508): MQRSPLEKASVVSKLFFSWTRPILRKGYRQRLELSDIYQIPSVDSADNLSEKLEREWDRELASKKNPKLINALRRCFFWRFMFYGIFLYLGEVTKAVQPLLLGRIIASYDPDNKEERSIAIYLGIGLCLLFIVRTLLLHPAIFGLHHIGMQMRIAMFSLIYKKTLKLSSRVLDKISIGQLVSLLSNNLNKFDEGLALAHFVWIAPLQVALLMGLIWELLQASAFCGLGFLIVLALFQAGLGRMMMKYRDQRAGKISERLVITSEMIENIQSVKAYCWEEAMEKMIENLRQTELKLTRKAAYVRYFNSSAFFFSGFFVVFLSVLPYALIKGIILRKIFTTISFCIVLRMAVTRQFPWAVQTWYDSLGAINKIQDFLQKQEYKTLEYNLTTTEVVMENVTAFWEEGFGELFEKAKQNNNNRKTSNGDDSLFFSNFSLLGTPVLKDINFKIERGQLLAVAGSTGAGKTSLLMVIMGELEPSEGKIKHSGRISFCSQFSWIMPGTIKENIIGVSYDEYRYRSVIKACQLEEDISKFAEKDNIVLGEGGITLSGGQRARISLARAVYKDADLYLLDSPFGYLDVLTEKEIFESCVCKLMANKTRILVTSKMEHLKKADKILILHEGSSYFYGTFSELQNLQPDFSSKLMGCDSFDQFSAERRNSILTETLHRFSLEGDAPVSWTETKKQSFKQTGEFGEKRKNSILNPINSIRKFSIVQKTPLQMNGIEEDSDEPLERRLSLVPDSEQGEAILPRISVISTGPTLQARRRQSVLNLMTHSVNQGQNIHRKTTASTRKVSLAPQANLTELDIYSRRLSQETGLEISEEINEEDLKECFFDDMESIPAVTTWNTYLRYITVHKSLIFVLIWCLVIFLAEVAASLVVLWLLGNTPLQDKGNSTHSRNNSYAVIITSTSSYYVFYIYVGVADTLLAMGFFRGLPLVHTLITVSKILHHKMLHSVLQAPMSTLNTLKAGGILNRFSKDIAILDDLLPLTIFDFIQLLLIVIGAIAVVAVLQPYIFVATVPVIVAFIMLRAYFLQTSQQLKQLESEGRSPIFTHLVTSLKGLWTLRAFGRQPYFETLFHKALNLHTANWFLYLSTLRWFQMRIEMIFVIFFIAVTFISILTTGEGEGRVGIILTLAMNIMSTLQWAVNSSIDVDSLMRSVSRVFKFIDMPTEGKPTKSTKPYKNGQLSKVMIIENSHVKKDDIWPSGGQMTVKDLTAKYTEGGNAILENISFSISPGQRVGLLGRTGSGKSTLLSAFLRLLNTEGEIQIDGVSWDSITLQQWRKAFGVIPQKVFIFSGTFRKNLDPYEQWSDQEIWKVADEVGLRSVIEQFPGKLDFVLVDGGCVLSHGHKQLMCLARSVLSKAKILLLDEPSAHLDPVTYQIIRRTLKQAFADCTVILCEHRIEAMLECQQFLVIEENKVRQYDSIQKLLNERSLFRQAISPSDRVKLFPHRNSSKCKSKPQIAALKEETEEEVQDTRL

SMILES	Emax [2] [%]	EC50 [3] [nM]	Emax [4] [%]	other results
COc1cc(CCNC(=O)[C@@H]2CC(=O)N(C)[C@@H](CC(C)C)C(=O)N(CCC3CCCCC3)CC(=O)N[C@H](Cc3ccccc3)COc3cccc(OC)c3C(=O)N2)ccn1 [Example 158, (3R,9S,13S)-3-benzyl-7-(2-cyclohexylethyl)-9-isobutyl-16-methoxy-N-(2-(2-methoxypyridin-4-yl)ethyl)-10-methyl-5,8,11,15-tetraoxo-2,3,4,5,6,7,8,9,10,11,12,13,14,15-tetradecahydrobenzo[p][1]oxa[4,7,10,14]tetraazacycloheptadecine-13-carboxamide]	169	–	–	EC50 [1]: 315 nM
COc1cc(OC)c2c(c1)OC[C@@H](Cc1ccccc1)NC(=O)CN(CCC1CCCCC1)C(=O)[C@H](C)N(C)C(=O)C[C@@H](C(=O)NCCc1ccc3c(c1)OCO3)NC2=O [Example 272, (3R,9S,13S)-N-(2-(benzo[d][1,3]dioxol-5-yl)ethyl)-3-benzyl-7-(2-cyclohexylethyl)-16,18-dimethoxy-9,10-dimethyl-5,8,11,15-tetraoxo-2,3,4,5,6,7,8,9,10,11,12,13,14,15-tetradecahydrobenzo[p][1]oxa[4,7,10,14]tetraazacycloheptadecine-13-carboxamide]	176	–	–	EC50 [1]: 374 nM
Cc1cc(C)cc(-c2noc(CCNC(=O)[C@@H]3CC(=O)N(C)[C@@H](CC(C)C)C(=O)N4CCCC[C@@H]4C(=O)N[C@H](Cc4ccccc4)COc4cnc5ccccc5c4C(=O)N3)n2)c1 [Example 86, (9S,13S,19aR,22R)-22-benzyl-N-(2-(3-(3,5-dimethylphenyl)-1,2,4-oxadiazol-5-yl)ethyl)-13-isobutyl-12-methyl-7,11,14,20-tetraoxo-7,8,9,10,11,12,13,14,17,18,19,19a,20,21,22,23-hexadecahydro-16H-pyrido[2′,1′:6,7][1]oxa[4,7,10,14]tetraazacycloheptadecino[17,16-c]quinoline-9-carboxamide]	157	–	–	EC50 [1]: 314 nM
[2H]C1([2H])Oc2ccc3c(c2O1)C(=O)N[C@H](C(=O)NCCc1ccc(-n2nccn2)cc1)CC(=O)N(C)[C@@H](CC(C)C)C(=O)N1CCCC[C@@H]1C(=O)N[C@H](Cc1ccccc1)CO3 [Example 653, (8S,12S,18aR,21R)-N-(4-(2H-1,2,3-triazol-2-yl)phenethyl)-21-benzyl-12-isobutyl-11-methyl-6,10,13,19-tetraoxo-6,7,8,9,10,11,12,13,16,17,18,18a,19,20,21,22-hexadecahydro-15H-[1,3]dioxolo[4′,5′:5,6]benzo[1,2-p]pyrido[2,1-f][1]oxa[4,7,10,14]tetraazacycloheptadecine-4,4-d2-8-carboxamide]	–	332	140	–
CO[C@H]1C[C@]2(C1)C(=O)N[C@H](Cc1ccccc1)COc1ccc3ccccc3c1C(=O)N[C@H](C(=O)NCCc1cc(C)no1)CC(=O)N(C)[C@@H](CC(C)C)C(=O)N2C [Example 633, (1r,3S,3′S,7′S,13′R)-13′-benzyl-7′-isobutyl-3-methoxy-6′,9′-dimethyl-N-(2-(3-methylisoxazol-5-yl)ethyl)-1′,5′,8′,11′-tetraoxo-2′,3′,4′,5′,6′,7′,8′,9′,11′,12′,13′,14′-dodecahydro-1′H-spiro[cyclobutane-1,10′-naphtho[1,2-p][1]oxa[4,7,10,14]tetraazacycloheptadecine]-3′-carboxamide]	–	652	316	–
Cc1cc(CCNC(=O)[C@@H]2CC(=O)N(C)[C@@H](CC(C)C)C(=O)N(C)[C@@H](CCOCc3ccccc3)C(=O)N[C@H](Cc3ccccc3)COc3cnc4ccccc4c3C(=O)N2)on1 [Example 579, (3S,7S,10S,13R)-13-benzyl-10-(2-(benzyloxy)ethyl)-7-isobutyl-6,9-dimethyl-N-(2-(3-methylisoxazol-5-yl)ethyl)-1,5,8,11-tetraoxo-1,2,3,4,5,6,7,8,9,10,11,12,13,14-tetradecahydro-[1]oxa[4,7,10,14]tetraazacycloheptadecino[17,16-c]quinoline-3-carboxamide]	–	399	131	–
CC(C)C[C@H]1C(=O)N(C)CC(=O)N[C@H](Cc2ccccc2)COc2ccccc2C(=O)N[C@H](C(=O)NCCc2ccc3c(c2)OCCO3)CC(=O)N1C [Example 688, (3R,9S,13S)-3-benzyl-N-(2-(2,3-dihydrobenzo[b][1,4]dioxin-6-yl)ethyl)-9-isobutyl-7,10-dimethyl-5,8,11,15-tetraoxo-2,3,4,5,6,7,8,9,10,11,12,13,14,15-tetradecahydrobenzo[p][1]oxa[4,7,10,14]tetraazacycloheptadecine-13-carboxamide]	–	458	104	–
CC(C)C[C@H]1C(=O)N(C)C2(CC2)C(=O)N[C@H](Cc2ccccc2)COc2ccc3ncccc3c2C(=O)N[C@H](C(=O)NCCc2cc(C3CC3)no2)CC(=O)N1C [Example 543, (3′S,7′S,13′R)-13′-benzyl-N-(2-(3-cyclopropylisoxazol-5-yl)ethyl)-7′-isobutyl-6′,9′-dimethyl-1′,5′,8′,11′-tetraoxo-2′,3′,4′,5′,6′,7′,8′,9′,11′,12′,13′,14′-dodecahydro-1′H-spiro[cyclopropane-1,10′-[1]oxa[4,7,10,14]tetraazacycloheptadecino[16,17-f]quinoline]-3′-carboxamide]	–	785	399	–
COc1cc2c(cn1)OC[C@@H](Cc1ccccc1)NC(=O)C1(CC1)N(C)C(=O)[C@H](CC(C)C)N(C)C(=O)C[C@@H](C(=O)NCCc1noc(C3CC3)n1)NC2=O [Example 649, (3′R,9′S,13′S)-3′-benzyl-N-(2-(5-cyclopropyl-1,2,4-oxadiazol-3-yl)ethyl)-9′-isobutyl-17′-methoxy-7′,10′-dimethyl-5′,8′,11′,15′-tetraoxo-2′,3′,4′,5′,8′,9′,10′,11′,12′,13′,14′,15′-dodecahydro-7′H-spiro[cyclopropane-1,6′-pyrido[4,3-p][1]oxa[4,7,10,14]tetraazacycloheptadecine]-13′-carboxamide]	–	908	149	–
CC(C)C[C@H]1C(=O)N(C)[C@H](Cc2nc(-c3ccc(F)cn3)no2)C(=O)N[C@H](Cc2ccccc2)COc2cnc3ccc(F)cc3c2C(=O)N[C@H](C(=O)NC[C@@H](O)c2ccccc2)CC(=O)N1C [Example 842, (3S,7S,10R,13R)-13-benzyl-20-fluoro-10-((3-(5-fluoropyridin-2-yl)-1,2,4-oxadiazol-5-yl)methyl)-N-((S)-2-hydroxy-2-phenylethyl)-7-isobutyl-6,9-dimethyl-1,5,8,11-tetraoxo-1,2,3,4,5,6,7,8,9,10,11,12,13,14-tetradecahydro-[1]oxa[4,7,10,14]tetraazacycloheptadecino[17,16-c]quinoline-3-carboxamide]	–	–	–	EC50 (U2OS cells, 16h compound incubation, geomean of several measurements): 495 nM; Emax (in relation to the Emax of the corrector lumacaftor (=100%), U2OS cells, 16h compound incubation, arithmetic mean): 305%
COc1cccc(CCNC(=O)[C@@H]2CC(=O)N(C)[C@@H](CC3CCCCC3)C(=O)N(C[C@H]3CCCCO3)CC(=O)N[C@H](Cc3ccccc3)COc3ccc4ccccc4c3C(=O)N2)c1 (racemic) [Example 296, (3RS,7S,13R)-13-benzyl-7-(cyclohexylmethyl)-N-(3-methoxyphenethyl)-6-methyl-1,5,8,11-tetraoxo-9-(((R)-tetrahydro-2H-pyran-2-yl)methyl)-1,2,3,4,5,6,7,8,9,10,11,12,13,14-tetradecahydronaphtho[1,2-p][1]oxa[4,7,10,14]tetraazacycloheptadecine-3-carboxamide]	144	–	–	–
